Values after ≈ are worked out from the molar mass of the structure shown.
How the values were obtained:
Assay type in all cases: functional
[1] = tested on: Staphylococcus aureus; assay: In vitro antibacterial activity against Staphylococcus aureus 77 (S.a.2)
[2] = tested on: Staphylococcus aureus; assay: In vitro antibacterial activity against methicillin-resistant Staphylococcus aureus 241 (MRSA)
[3] = tested on: Enterococcus faecium; assay: In vitro antibacterial activity against vancomycin-resistant Enterococcus faecium 2006 (VRE.2)
[4] = tested on: Staphylococcus epidermidis; assay: In vitro antibacterial activity against Staphylococcus epidermidisMR 887E (S. e. MR)
[5] = tested on: Enterococcus faecalis; assay: In vitro antibacterial activity against Enterococcus faecalis EFS008 (E.f.2)
[6] = tested on: Staphylococcus aureus; assay: In vitro antibacterial activity against Staphylococcus aureus 29213A (S.a.3)
[7] = tested on: Enterococcus faecium; assay: In vitro antibacterial activity against vancomycin-resistant Enterococcus faecium 2164 (VRE.3)
[8] = tested on: Staphylococcus epidermidis; assay: In vitro antibacterial activity against Staphylococcus epidermidis Q004 (S.e.1)
[9] = tested on: Enterococcus faecalis; assay: In vitro antibacterial activity against Enterococcus faecalis 29212A (E.f.1)
[10] = tested on: Staphylococcus aureus; assay: In vitro antibacterial activity against Staphylococcus aureus 6538p (S.a.1)
[11] = tested on: Enterococcus faecium; assay: In vitro antibacterial activity against vancomycin-resistant Enterococcus faecium (VRE.1)

Row | SMILES | MIC [1] | MIC [2] | MIC [3] | MIC [4] | MIC [5] | MIC [6] | MIC [7] | MIC [8] | MIC [9] | MIC [10] | MIC [11]
1 | CCOC(=O)c1cnoc1C1=CCN(c2ccc(N3C[C@H](CNC(C)=O)OC3=O)cc2F)CC1 | 4 µg/mL (≈ 8.47 µM) | 4 µg/mL (≈ 8.47 µM) | 8 µg/mL (≈ 16.9 µM) | 16 µg/mL (≈ 33.9 µM) | 8 µg/mL (≈ 16.9 µM) | 4 µg/mL (≈ 8.47 µM) | 8 µg/mL (≈ 16.9 µM) | 4 µg/mL (≈ 8.47 µM) | 16 µg/mL (≈ 33.9 µM) | 8 µg/mL (≈ 16.9 µM) | 16 µg/mL (≈ 33.9 µM)
2 | CC(=O)NC[C@H]1CN(c2ccc(N3CC=C(c4oncc4C)CC3)c(F)c2)C(=O)O1 | 1 µg/mL (≈ 2.41 µM) | 2 µg/mL (≈ 4.83 µM) | 2 µg/mL (≈ 4.83 µM) | 2 µg/mL (≈ 4.83 µM) | 4 µg/mL (≈ 9.65 µM) | 4 µg/mL (≈ 9.65 µM) | 2 µg/mL (≈ 4.83 µM) | 1 µg/mL (≈ 2.41 µM) | 4 µg/mL (≈ 9.65 µM) | 2 µg/mL (≈ 4.83 µM) | 2 µg/mL (≈ 4.83 µM)
3 | CC(=O)NC[C@H]1CN(c2ccc(N3CC=C(c4oncc4C(=O)N(C)C)CC3)c(F)c2)C(=O)O1 | 8 µg/mL (≈ 17 µM) | 8 µg/mL (≈ 17 µM) | 8 µg/mL (≈ 17 µM) | 8 µg/mL (≈ 17 µM) | 8 µg/mL (≈ 17 µM) | 4 µg/mL (≈ 8.48 µM) | 8 µg/mL (≈ 17 µM) | 2 µg/mL (≈ 4.24 µM) | 8 µg/mL (≈ 17 µM) | 4 µg/mL (≈ 8.48 µM) | 8 µg/mL (≈ 17 µM)
4 | CC(=O)NC[C@H]1CN(c2ccc(N3CC=C(c4oncc4C(F)(F)F)CC3)c(F)c2)C(=O)O1 | > 64 µg/mL | – | > 64 µg/mL | > 64 µg/mL | > 64 µg/mL | > 64 µg/mL | > 64 µg/mL | > 64 µg/mL | > 64 µg/mL | > 64 µg/mL | > 64 µg/mL
5 | CC(=O)NC[C@H]1CN(c2ccc(N3CCOCC3)c(F)c2)C(=O)O1 [LINEZOLID] | 0.5 µg/mL (≈ 1.48 µM) | 0.5 µg/mL (≈ 1.48 µM) | 2 µg/mL (≈ 5.93 µM) | 1 µg/mL (≈ 2.96 µM) | – | – | 2 µg/mL (≈ 5.93 µM) | 0.5 µg/mL (≈ 1.48 µM) | – | 0.5 µg/mL (≈ 1.48 µM) | 2 µg/mL (≈ 5.93 µM)
6 | CC(=O)NC[C@H]1CN(c2ccc(N3CC=C(c4oncc4Cl)CC3)c(F)c2)C(=O)O1 | 8 µg/mL (≈ 18.4 µM) | 4 µg/mL (≈ 9.2 µM) | 32 µg/mL (≈ 73.6 µM) | 16 µg/mL (≈ 36.8 µM) | 64 µg/mL (≈ 147 µM) | 32 µg/mL (≈ 73.6 µM) | 32 µg/mL (≈ 73.6 µM) | 8 µg/mL (≈ 18.4 µM) | 64 µg/mL (≈ 147 µM) | 8 µg/mL (≈ 18.4 µM) | 32 µg/mL (≈ 73.6 µM)
7 | CC(=O)NC[C@H]1CN(c2ccc(N3CC=C(c4oncc4C(N)=O)CC3)c(F)c2)C(=O)O1 | 0.5 µg/mL (≈ 1.13 µM) | 0.5 µg/mL (≈ 1.13 µM) | 1 µg/mL (≈ 2.26 µM) | 1 µg/mL (≈ 2.26 µM) | 1 µg/mL (≈ 2.26 µM) | 0.5 µg/mL (≈ 1.13 µM) | 1 µg/mL (≈ 2.26 µM) | 0.5 µg/mL (≈ 1.13 µM) | 1 µg/mL (≈ 2.26 µM) | 0.5 µg/mL (≈ 1.13 µM) | 1 µg/mL (≈ 2.26 µM)
8 | CC(=O)NC[C@H]1CN(c2ccc(N3CC=C(c4oncc4C#N)CC3)c(F)c2)C(=O)O1 | 1 µg/mL (≈ 2.35 µM) | 2 µg/mL (≈ 4.7 µM) | 4 µg/mL (≈ 9.4 µM) | 4 µg/mL (≈ 9.4 µM) | 4 µg/mL (≈ 9.4 µM) | 4 µg/mL (≈ 9.4 µM) | 4 µg/mL (≈ 9.4 µM) | 1 µg/mL (≈ 2.35 µM) | 4 µg/mL (≈ 9.4 µM) | 2 µg/mL (≈ 4.7 µM) | 4 µg/mL (≈ 9.4 µM)
9 | CN[C@H](CC(C)C)C(=O)N[C@H]1C(=O)N[C@@H](CC(N)=O)C(=O)N[C@H]2C(=O)N[C@H]3C(=O)N[C@H](C(=O)N[C@H](C(=O)O)c4cc(O)cc(O)c4-c4cc3ccc4O)[C@H](O)c3ccc(c(Cl)c3)Oc3cc2cc(c3O[C@@H]2O[C@H](CO)[C@@H](O)[C@H](O)[C@H]2O[C@H]2C[C@](C)(N)[C@H](O)[C@H](C)O2)Oc2ccc(cc2Cl)[C@H]1O [VANCOMYCIN] | – | – | > 64 µg/mL | – | – | – | > 64 µg/mL | – | – | – | 64 µg/mL (≈ 44.2 µM)
10 | CC(=O)NC[C@H]1CN(c2ccc(N3CC=C(c4conc4C#N)CC3)c(F)c2)C(=O)O1 | 1 µg/mL (≈ 2.35 µM) | 1 µg/mL (≈ 2.35 µM) | 2 µg/mL (≈ 4.7 µM) | 4 µg/mL (≈ 9.4 µM) | 2 µg/mL (≈ 4.7 µM) | 2 µg/mL (≈ 4.7 µM) | 2 µg/mL (≈ 4.7 µM) | 0.5 µg/mL (≈ 1.18 µM) | 2 µg/mL (≈ 4.7 µM) | 1 µg/mL (≈ 2.35 µM) | 2 µg/mL (≈ 4.7 µM)
11 | CC(=O)NC[C@H]1CN(c2ccc(N3CC=C(c4conc4Cl)CC3)c(F)c2)C(=O)O1 | 2 µg/mL (≈ 4.6 µM) | 2 µg/mL (≈ 4.6 µM) | 8 µg/mL (≈ 18.4 µM) | 8 µg/mL (≈ 18.4 µM) | 8 µg/mL (≈ 18.4 µM) | 8 µg/mL (≈ 18.4 µM) | 8 µg/mL (≈ 18.4 µM) | 2 µg/mL (≈ 4.6 µM) | 8 µg/mL (≈ 18.4 µM) | 2 µg/mL (≈ 4.6 µM) | 8 µg/mL (≈ 18.4 µM)
